# Data as given in the OPERA property sets (Mansouri et al. 2018).
# Conditions: not given
row,Structure (SMILES),logP
1,CNC(=O)N(C)c1nc2ccccc2s1,2.64
2,CCCCCCCCn1sccc1=O,2.45
3,CC(C)(C)c1ccc(CSc2cnn(C(C)(C)C)c(=O)c2Cl)cc1,6.37
4,N#Cc1c[nH]cc1-c1cccc2c1OC(F)(F)O2,4.12
5,c1coc(-c2nc3ccccc3[nH]2)c1,2.67
6,CCOC(=O)Nc1cccc(OC(=O)Nc2ccccc2)c1,3.39
7,O=C1C(Cl)=C(Cl)C(=O)N1c1ccc(F)cc1,2.3

# Same assay, conditions: 20 °C
row,Structure (SMILES),solubility [µM]
1,CCc1cccc(C)c1N(COC(C)C)C(=O)CCl,648
2,CNC(=O)Oc1cc(C)c(SC)c(C)c1,72.9
3,ClC1=C(Cl)C(Cl)(C2(Cl)C(Cl)=C(Cl)C(Cl)=C2Cl)C(Cl)=C1Cl,0.0527
4,O=C1c2ccccc2C(=O)C1C(=O)C(c1ccccc1)c1ccc(Cl)cc1 (centres undefined),267

# Same assay, conditions: 24 °C
row,Structure (SMILES),solubility [µM]
1,CCOC(=O)Cc1[nH]nc2ccc(Cl)cc12,943

# Same assay, conditions: 25 °C
row,Structure (SMILES),solubility [µM]
1,COc1nc(NC(C)C)nc(NC(C)C)n1,3330
2,CC(C)(N=C(O)C(Br)C(C)(C)C)c1ccccc1 (centres undefined),11.3
